Earlier results on five compounds are cited in patent US7829124B2, “Use of Phyllanthus constituents for treating or preventing infections caused by hepatitis B-viruses” (priority 2001, dated 2010).

Data set [1] deals with CA^2+-dependent protein kinase of the wheat embryo.
For data set [2], the target named is T1, cAMP-dependent protein kinase of the rat liver (Rattus norvegicus, UniProt P27791).
T1 construct: the cAMP-dependent protein kinase of the rat liver; host or cells: rat liver

Data set [3] has as its system CA^2+- and phopholipid-dependent protein kinase C (PKC) of the rat brain.
Another data set deals with HBV. The settings on record: chronically infected patients.
The subject of a further data set is Bacillus subtilis. To be noted: 0.1 ml; extract 50 mg/ml, streptomycin 10 mg/ml.
Another data set relates to Staphylococcus aureus. The settings on record: 0.1 ml; extract 50 mg/ml, streptomycin 10 mg/ml.

Turning to phenazine-derivative of the geraniin, the “inhibition of CA^2+-dependent protein kinase” value in data set [1] is on record as “most effective”. The “inhibition of cAMP-dependent protein kinase” value in data set [2] is “most effective”. In addition, the “inhibition of protein kinase C (PKC)” value in data set [3] is listed as “most effective”.

With interferon α, in the data set on HBV, the “cases in which the virus is eliminated from the liver” value is given as 20-30% and the “further cases with clearly reduced number of viruses in the blood” value was 30%.

As for `[H]/N=C(/N)N[C@H]1[C@H](O)[C@@H](O)[C@H](O[C@@H]2O[C@@H](C)[C@](O)(C=O)[C@H]2O[C@@H]2O[C@@H](CO)[C@H](O)[C@@H](O)[C@@H]2NC)[C@@H](N/C(N)=N\[H])[C@@H]1O` [streptomycin], the inhibition zone in the data set on Bacillus subtilis and with Staphylococcus aureus was 35 mm throughout.

With `O=C1O[C@H]2[C@@H]3OC(=O)c4cc(O)c(O)c(O)c4-c4c(cc(O)c(O)c4O)C(=O)OC[C@H]2O[C@@H](OC(=O)c2cc(O)c(O)c(O)c2)[C@@H]3OC(=O)c2cc(O)c(O)c3c2[C@@H]2C1=CC(=O)[C@](O)(O3)C2(O)O` [geraniin], in data set [1], the “inhibition of CA^2+-dependent protein kinase” value was “most effective”. Moreover, in data set [2], the “inhibition of cAMP-dependent protein kinase” value is reported as “most effective”. Besides, the “inhibition of protein kinase C (PKC)” value in data set [3] is “most effective”.

As for `O=C1OC2C3OC(=O)C4=CC(=O)C5(O)Oc6c(O)c(O)cc(c6C4C5(O)O)C(=O)OC2C(OC(=O)c2cc(O)c(O)c(O)c2)OC3COC(=O)c2cc(O)c(O)c3c2C2C1=CC(=O)C(O)(O3)C2(O)O` (stereo not shown) [amariin], the “inhibition of CA^2+-dependent protein kinase” value in data set [1] is given as “most effective”. In data set [2], the “inhibition of cAMP-dependent protein kinase” value is given as “most effective”. In addition, the “inhibition of protein kinase C (PKC)” value in data set [3] is “most effective”.
